{
  "source": "patent US6946492B2",
  "about": "“Use of C2-substituted indan-1-one systems for preparing medicaments for the treatment of obesity” (Aventis Pharma Deutschland GmbH, priority 2001, dated 2005)",
  "key": {"female NMRI mice": {"test_system": "female NMRI mice", "experiment": "Anorectic action: cumulative milk consumption after removal of feed for 24 hours", "type": "in vivo", "details": "for cumulative milk consumption by treated animals: evaporated milk, monitored for 7 hours; for Reduction in cumulative milk consumption as % of the contol: vs control animals", "description": "The anorectic action was tested on female NMRI mice. After removal of feed for 24 hours, the preparation to be tested was administered intraperitoneally (ip) or by gavage (po). The animals were housed singly and, with free access to drinking water, they were offered evaporated milk 30 minutes after administration of the preparation. The consumption of evaporated milk was determined and the general behavior of the animals was monitored every half an hour for 7 hours. The measured milk consumption was compared to that of vehicle-treated control animals."}},
  "data": [
    {"compound": "O=C1c2ccc(Cl)cc2CC1Sc1ccccc1", "note": "(stereo not shown) [Example 3, 5-chloro-2-phenylsulfanylindan-1-one]", "values": [
      {"measurement": "melting point", "value": 89, "unit": "°C"}
    ]},
    {"compound": "O=C1c2ccc(Cl)cc2CC1S(=O)(=O)c1ccccc1", "note": "(stereo not shown) [Example 4, 2-benzenesulfonyl-5-chloroindan-1-one]", "values": [
      {"measurement": "melting point", "value": 133, "unit": "°C"}
    ]},
    {"compound": "CS(=O)(=O)C1Cc2cc(Cl)ccc2C1=O", "note": "(stereo not shown) [Example 2, 5-Chloro-2-methanesulfonylindan-1-one]", "values": [
      {"measurement": "cumulative milk consumption by treated animals", "setting": "female NMRI mice; 20 mg/kg ip", "value": "05/1.16 ml"},
      {"measurement": "Reduction in cumulative milk consumption as % of the contol", "setting": "female NMRI mice; 20 mg/kg ip", "value": 70, "unit": "%"}
    ]},
    {"compound": "C[S+]([O-])C1Cc2cc(Cl)ccc2C1=O", "note": "(stereo not shown) [Example 9, 5-chloro-2-methanesulfinylindan-1-one]", "values": [
      {"measurement": "cumulative milk consumption by treated animals", "setting": "female NMRI mice; 50 mg/kg po", "value": "05/1.16 ml"},
      {"measurement": "Reduction in cumulative milk consumption as % of the contol", "setting": "female NMRI mice; 50 mg/kg po", "value": 73, "unit": "%"},
      {"measurement": "melting point", "value": 228.87, "unit": "°C"}
    ]},
    {"compound": "CSC1Cc2cc(Cl)ccc2C1=O", "note": "(stereo not shown) [Example 1, 5-Chloro-2-methylsulfanylindan-1-one]", "values": [
      {"measurement": "cumulative milk consumption by treated animals", "setting": "female NMRI mice; 10 mg/kg ip", "value": "05/1.20 ml"},
      {"measurement": "Reduction in cumulative milk consumption as % of the contol", "setting": "female NMRI mice; 10 mg/kg ip", "value": 64, "unit": "%"},
      {"measurement": "melting point", "value": 90, "unit": "°C"}
    ]}
  ]
}
